Laboratory results as given in US11753407B2, “Compounds for treating spinal muscular atrophy” (PTC Therapeutics, Inc., priority 2012, dated 2023).

Columns and labels:
[1] = system: SMN2 minigene mRNA (SMN2-A minigene) in HEK293H cells; assay: SMN2 minigene mRNA splicing RT-qPCR assay in cultured cells; type: cell-based, human; conditions: Homo sapiens, HEK293-H; concentration increasing full length SMN2 mRNA 1.5-fold relative to vehicle-treated cells; HEK293H cells with SMN2-A minigene, 24 hours, 7-point concentration data; read-out: EC1.5x for production of full length SMN2 mRNA
Protocol: The reverse transcription-quantitative PCR-based (RT-qPCR) assay is used to quantify the level of the full length SMN2 minigene mRNA containing SMN2 exon 7 in a HEK293H cell line stably transfected with said minigene and treated with a test compound.
Protocol. HEK293H cells stably transfected with the SMN2-A minigene construct described above (10,000 cells/well) are seeded in 200 μL of cell culture medium (DMEM plus 10% FBS, with 200 μg/mL hygromycin) in 96-well flat-bottom plates and the plate is immediately swirled to ensure proper dispersal of cells, forming an even monolayer of cells. Cells are allowed to attach for at least 4-6 hours. Test compounds are serially diluted 3.16-fold in 100% DMSO to generate a 7-point concentration curve. A solution of test compound (1 μL, 200× in DMSO) is added to each cell-containing well and the plate is incubated for 24 hours in a cell culture incubator (37° C., 5% CO2, 100% relative humidity). 2 replicates are prepared for each test compound concentration. The cells are then lysed in Cells-To-Ct lysis buffer and the lysate is stored at −80° C.
Primer SMN Forward A (SEQ ID NO. 1) hybridizes to a nucleotide sequence in exon 7 (nucleotide 22 to nucleotide 40), primer SMN Reverse A (SEQ ID NO. 2) hybridizes to a nucleotide sequence in the coding sequence of Firefly luciferase, SMN Probe A (SEQ ID NO. 3) hybridizes to a nucleotide sequence in exon 7 (nucleotide 50 to nucleotide 54) and exon 8 (nucleotide 1 to nucleotide 21). The combination of these three oligonucleotides detects only SMN1 or SMN2 minigenes (RT-qPCR) and will not detect endogenous SMN1 or SMN2 genes.
The SMN forward and reverse primers are used at final concentrations of 0.4 μM. The SMN probe is used at a final concentration of 0.15 μM. The GAPDH primers are used at final concentrations of 0.2 μM and the probe at 0.15 μM.
The SMN2-minigene GAPDH mix (15 μL total volume) is prepared by combining 7.5 μL of 2× RT-PCR buffer, 0.4 μL of 25× RT-PCR enzyme mix, 0.75 μL of 20× GAPDH primer-probe mix, 4.0075 μL of water, 2 μL of 10-fold diluted cell lysate, 0.06 μL of 100 μM SMN forward primer, 0.06 μL of 100 μM SMN reverse primer, and […].
PCR is carried out at the following temperatures for the indicated time: Step 1: 48° C. (15 min); Step 2: 95° C. (10 min); Step 3: 95° C. (15 sec); Step 4: 60° C. (1 min); then repeat Steps 3 and 4 for a total of 40 cycles.
Each reaction mixture contains both SMN2-A minigene and GAPDH primers/probe sets (multiplex design), allowing simultaneous measurement of the levels of two transcripts.
Two SMN spliced products are generated from the SMN2 minigene. The first spliced product containing exon 7, corresponding to full length SMN2 mRNA, is referred to herein using the term “SMN2 minigene FL.” The second spliced product lacking exon 7 is referred to herein using the term “SMN2 minigene Δ7.”
The increase of SMN2 minigene FL mRNA relative to that in cells treated with vehicle control is determined from real-time PCR data using a modified ΔΔCt method (as described in Livak and Schmittgen, Methods, 2001, 25:402-8). The amplification efficiency (E) is calculated from the slope of the amplification curve for SMN2 minigene FL and GAPDH individually. The abundances of SMN2 minigene FL and GAPDH are then calculated as (1+E)^−Ct, where Ct is the threshold value for each amplicon. The abundance of SMN2 minigene FL is normalized to GAPDH abundance. The normalized SMN2 minigene FL abundance from test compound-treated samples is then divided by normalized SMN2 minigene FL abundance from vehicle-treated cells to determine the level of SMN2 FL mRNA relative to vehicle control.
For compounds of Formula (I) or a form thereof disclosed herein, Table 4 provides the […] for production of full length SMN2 mRNA that was obtained from the 7-point concentration data generated for each test compound according to the procedure of Biological Example 2. […]

[2] = system: Smn protein in SMA patient fibroblast cells (GM03813); assay: Smn protein assay in cultured cells (SMN HTRF); type: cell-based, human; conditions: SMA patient fibroblast cells, 48 hours; for maximum fold (Fold) increase of Smn protein: 7-point concentration data, fold relative to vehicle control; for EC1.5x for Smn protein expression: 7-point concentration curve, SMN HTRF, concentration producing 1.5 times Smn protein vs DMSO vehicle control
Protocol: The SMN HTRF (homogeneous time resolved fluorescence) assay is used to quantify the level of Smn protein in SMA patient fibroblast cells treated with test compounds.
Protocol. Cells are thawed and cultured in DMEM-10% FBS for 72 hours. Cells are trypsinized, counted and re-suspended to a concentration of 25,000 cells/mL in DMEM-10% FBS. The cell suspension is plated at 5,000 cells per well in a 96 well microtiter plate and incubated for 3 to 5 hours. […] Test compounds are serially diluted 3.16-fold in 100% DMSO to generate a 7-point concentration curve. 1 μL of test compound solution is transferred to cell-containing wells and cells are incubated for 48 hours in a cell culture incubator (37° C., 5% CO2, 100% relative humidity). Triplicate samples are set up for each test compound concentration. After 48 hours, the supernatant is removed from the wells and 25 μL of the RIPA lysis buffer, containing protease inhibitors, is added to the wells and incubated with shaking at room temperature for 1 hour. 25 μL of the diluent is added and then 35 μL of the resulting lysate is transferred to a 384-well plate, where each well contains 5 μL of the antibody solution (1:100 dilution of anti-SMN d2 and anti-SMN kryptate in SMN reconstitution buffer). The plate is centrifuged for 1 minute to bring the solution to the bottom of the wells, then incubated overnight at room temperature. Fluorescence for each well of the plate at 665 nm and 620 nm is measured on an EnVision multilabel plate reader (Perkin-Elmer).
The normalized fluorescence signal is calculated for each sample, Blank and vehicle control well by dividing the signal at 665 nm by the signal at 620 nm. Normalizing the signal accounts for possible fluorescence quenching due to the matrix effect of the lysate. The ΔF value (a measurement of Smn protein abundance as a percent value) for each sample well is calculated by subtracting the normalized average fluorescence for the Blank control wells from the normalized fluorescence for each sample well, then dividing this difference by the normalized average fluorescence for the Blank control wells and multiplying the resulting value by 100. The ΔF value for each sample well represents the Smn protein abundance from test compound-treated samples. The ΔF value for each sample well is divided by the ΔF value for the vehicle control wells to calculate the fold increase in Smn protein abundance relative to the vehicle control.
For compounds of Formula (I) or a form thereof disclosed herein, Table 9 provides the EC1.5× for Smn protein expression that was obtained from the 7-point concentration data generated for each test compound according to the procedure of Biological Example 7. The term “EC1.5× for Smn protein expression” is defined as that concentration of test compound that is effective in producing 1.5 times the amount of Smn protein in an SMA patient fibroblast cell compared to the amount produced from the DMSO vehicle control. An EC1.5× for Smn protein expression between >3 μM and ≤10 μM is indicated by one star (*), an EC1.5× between >1 μM and ≤3 μM is indicated by two stars (**), an EC1.5× between >0.3 μM and ≤1 μM is indicated by three stars (***) and an EC1.5x≤0.3 μM is indicated by four stars (****).
For compounds of Formula (I) or a form thereof disclosed herein, Table 10 provides the maximum fold (Fold) increase of Smn protein that was obtained from the 7-point concentration data generated for each test compound according to the procedure of Biological Example 7. A maximum fold increase of ≤1.2 is indicated by one star (*), a fold increase between >1.2 and ≤1.35 is indicated by two stars (**), a fold increase between >1.35 and ≤1.5 is indicated by three stars (***), a fold increase between >1.5 and ≤1.65 is indicated by four stars (****) and a fold increase >1.65 is indicated by five stars (*****).

SMILES	EC (1.5-fold increase) [1]	maximum fold (Fold) increase of Smn protein [2]	EC1.5x for Smn protein expression [2]
COc1ccc(-c2cc(=O)n3cc(N4CCCNCC4)ccc3n2)cc1OC [Compound 10, 7-(1,4-diazepan-1-yl)-2-(3,4-dimethoxyphenyl)-4H-pyrido[1,2-a]pyrimidin-4-one]	1 to 3 µM	** (a fold increase between >1.2 and ≤1.35 is indicated by two stars (**))	
COc1ccc(-c2cc(=O)n3cc(N4CCNC(C)(C)C4)ccc3n2)cc1 [Compound 17, 7-(3,3-dimethylpiperazin-1-yl)-2-(4-methoxyphenyl)-4H-pyrido[1,2-a]pyrimidin-4-one]	1 to 3 µM	* (A maximum fold increase of ≤1.2 is indicated by one star (*))	
COc1cccc(-c2cc(=O)n3cc(N4CCCNCC4)ccc3n2)c1 [Compound 27, 7-(1,4-diazepan-1-yl)-2-(3-methoxyphenyl)-4H-pyrido[1,2-a]pyrimidin-4-one]	3 to 30 µM	* (A maximum fold increase of ≤1.2 is indicated by one star (*))	
O=c1cc(-c2cc(F)c(O)c(F)c2)nc2ccc(N3CCNCC3)cn12 [Compound 71, 2-(3,5-difluoro-4-hydroxyphenyl)-7-(piperazin-1-yl)-4H-pyrido[1,2-a]pyrimidin-4-one]	1 to 3 µM	**** (a fold increase between >1.5 and ≤1.65 is indicated by four stars (****))	* (An EC1.5× for Smn protein expression between >3 μM and ≤10 μM is indicated by one star (*))
O=c1cc(-c2cc(F)cc(C(F)(F)F)c2)nc2ccc(N3CCNCC3)cn12 [Compound 76, 2-[3-fluoro-5-(trifluoromethyl)phenyl]-7-(piperazin-1-yl)-4H-pyrido[1,2-a]pyrimidin-4-one]	0.3 to 1 µM	** (a fold increase between >1.2 and ≤1.35 is indicated by two stars (**))	
COc1ccc(-c2cc(=O)n3cc(N4CCNCC4)ccc3n2)cc1OC(F)F [Compound 99, 2-[3-(difluoromethoxy)-4-methoxyphenyl]-7-(piperazin-1-yl)-4H-pyrido[1,2-a]pyrimidin-4-one]	0.3 to 1 µM	**** (a fold increase between >1.5 and ≤1.65 is indicated by four stars (****))	*** (an EC1.5× between >0.3 μM and ≤1 μM is indicated by three stars (***))
O=c1cc(-c2ccc3nccn3c2)nc2ccc(N3CCNCC3)cn12 [Compound 108, 2-(imidazo[1,2-a]pyridin-6-yl)-7-(piperazin-1-yl)-4H-pyrido[1,2-a]pyrimidin-4-one]	0.1 to 0.3 µM	*** (a fold increase between >1.35 and ≤1.5 is indicated by three stars (***))	
Cc1cn2cc(-c3cc(=O)n4cc(N5CCN(C)CC5)ccc4n3)ccc2n1 [Compound 114, 2-(2-methylimidazo[1,2-a]pyridin-6-yl)-7-(4-methylpiperazin-1-yl)-4H-pyrido[1,2-a]pyrimidin-4-one]	1 to 3 µM	*** (a fold increase between >1.35 and ≤1.5 is indicated by three stars (***))	
Cc1cn2cc(-c3cc(=O)n4cc(N5CCN[C@@H](C)C5)ccc4n3)ccc2n1 [Compound 115, 2-(2-methylimidazo[1,2-a]pyridin-6-yl)-7-[(3S)-3-methylpiperazin-1-yl]-4H-pyrido[1,2-a]pyrimidin-4-one]	< 0.1 µM	**** (a fold increase between >1.5 and ≤1.65 is indicated by four stars (****))	**** (an EC1.5x≤0.3 μM is indicated by four stars (****))
Cc1cn2cc(-c3cc(=O)n4cc(N5CCCNCC5)ccc4n3)ccc2n1 [Compound 116, 7-(1,4-diazepan-1-yl)-2-(2-methylimidazo[1,2-a]pyridin-6-yl)-4H-pyrido[1,2-a]pyrimidin-4-one]	0.1 to 0.3 µM	*** (a fold increase between >1.35 and ≤1.5 is indicated by three stars (***))	* (An EC1.5× for Smn protein expression between >3 μM and ≤10 μM is indicated by one star (*))
